# Experimental data from patent publication US20130266636A1, “METHODS FOR BLOCKING CELL PROLIFERATION AND TREATING DISEASES AND CONDITIONS RESPONSIVE TO CELL GROWTH INHIBITION” (THE REGENTS OF THE UNIVERSITY OF CALIFORNIA, priority 2010, published 2013).
# Entries after “also recorded” stand apart in the source; their conditions may differ.
# Experiments:
# [1] = test system: U-87 human glioblastoma cells; assay: Cells in pro-metaphase in orthotopic brain tumor xenografts; format: in vivo, mice; conditions: systemic KG5 50 mg/Kg, after three days
# Procedure: Phosphorylation of CRAF on serine 338 has been linked to cell proliferation survival as well as breast cancer progression^9-11,14-16. To determine whether KG5 could similarly regulate phospho-5338 RAF in tumors, we analyzed orthotopic […] and brain tumor tissues for the presence of this marker before or after systemic delivery of the drug.
# Tumors were generated by injection of RFP-labeled U-87 human glioblastoma cells (10^5 tumorcells in 2 μl of sterile PBS) into the brain of 6-8 week old female nude mice. Tumors were established for 3 weeks before beginning dosing. Mice were dosed with vehicle (10% HS-15) or 50 mg/kg KG5 (i.p. bid) for 3 days prior to harvest. Alternatively, U-87 cells stably expressing WT CRAF or the phospho-mimetic S338D CRAF mutant were injected into the brain of 6-8 week old female nude mice. Brains were harvested at day 15 and fluorescence images recorded using the IVIS-200™ imaging system (Xenogen Corp., Hopkinton, Mass.). Tumor sizes were measured as a function of fluorescence intensity using the ROI function of the IVIS Living Image Software. […]
# HCT-116 cells = assay: G2/M arrest in HCT-116 cells expressing WT or S338D CRAF; format: cell-based, human; conditions: 1 μM KG5, 18 hours
# [2] = test system: human colon (HCT-116), pancreatic (Mia-Paca2, FG, XPA-1, BXPC3), breast (MDA-MB-231) and brain (U251) cancer cell lines; assay: Cell cycle analysis of proliferating tumor cell lines treated with KG5; format: cell-based; conditions: all proliferating tumor cell lines tested
# Procedure: FIG. 40. Allosteric inhibition of RAF arrests proliferating cells at pro-metaphase. FIG. 40(a) Cell cycle analysis and G2/M quantification of human colon (HCT-116), pancreatic (Mia-Paca2, FG, XPA-1, BXPC3), breast (MDA-MB-231) and brain (U251) cancer cell lines untreated or treated for 20 hours with 5 μM of KG5. Error bars represent s.d. (n=4); * two tailed p value=0.0023 using Mann Whitney U test. FIG. 40(b) HCT-116 cells were cultured under low (30%) or high (90%) confluency and treated with 1 μM KG5 for 20 hours. […] Error bars represent s.d. (n=3); * two tailed p value=0.0021 using Mann Whitney U test. FIG. 40(c) HCT-116 and XPA-1 cells were treated for 20 hours with 1 μM of KG5, stained for α-tubulin/DNA, and cells arrested in pro-metaphase were quantified by confocal microscopy. Error bars represent s.d. (n=3); * two tailed p value=0.0008 using Mann Whitney U test. Lysates from the same cells were also analyzed by immunoblotting for the expression of the mitotic marker phospho-Histone H3 (inset). Data are representative of three independent experiments.
# Cell cycle analysis was performed by flow cytometry following propidium iodide staining. Briefly, cells were harvested, fixed with ice cold methanol, treated for 45 min with 10 μg/ml of RNase and resuspended in PBS containing 10 μg/ml of PI, and analyzed by flow cytometry. […]
# [3] = test system: p21-activated kinase (PAK); conditions: inferred from MEK S298; cited from earlier work
# CRAF = CRAF (Homo sapiens, UniProt P04049); assay: CRAF localization to the mitotic spindle, confocal microscopy of XPA-1 cells; format: cell-based; parameters: total CRAF and total MEK of lysates from XPA-1 cells treated with PD0325901, Sorafenib, L-779450, PLX4720, KG5 or KG1; endogenous in cells; host or cells: XPA-1
# From the text: FIG. 35. […] Data are representative of three independent experiments. FIG. 35 (b) Confocal microscopy images of human pancreatic XPA-1 and glioblastoma U251 cells during mitosis, stained for phospho-5338 CRAF (in green), α-tubulin (in red) and DNA (TOPRO-3™ in blue). Scale bar, 10 μm. White arrows indicate localization of phospho-S338 CRAF at the mitotic spindle. FIG. 35 (c) Immunoblot analysis of γ-tubulin immunoprecipitates from human colon carcinoma HCT-116 cells asynchronized and synchronized at pro-metaphase. Data are representative of three independent experiments. FIG. 35(d) Immunohistochemical staining of phospho-S338 CRAF in tumor biopsies from breast cancer patients. Scale bar, 10 μm. FIG. 35(e) Confocal microscopy images of XPA-1 cells treated with KG5, sorafenib, ZM336372, L779450 or paclitaxel and stained for CRAF (in green), γ-tubulin (in red) and DNA (TOPRO-3™ in blue). Scale bar, 10 μm. White arrows indicate localization of CRAF at the spindle pole. White circle indicates the absence of CRAF at the spindle pole.
# Cells attached to cover-slips were fixed with cold methanol and permeabilized in PBS containing 0.1% triton for two minutes and blocked for 60 minutes, at room temperature with 2% BSA in PBS. Cells were stained with antibodies to CRAF (Abcam), phospho-serine 338 CRAF (SantaCruz), phospho-serine 338 CRAF (Thermo Scientific), a tubulin (Calbiochem), γ tubulin (Abcam), laminB (SantaCruz), Plk1 (Abcam), phospho-T210 Plk1 (Abcam), or phospho-T288 Aurora A (cell signaling). All primary antibodies were used at 1:100 dilution, for two hours at room temperature. After washing several times with PBS, cells were stained for two hours at room temperature, with secondary antibody specific for mouse, rabbit or goat (Invitrogen), as appropriate, diluted 1:300 and co-incubated with the DNA dye TOPRO-3™ (1:500) (Invitrogen). Samples were mounted in VECTASHIELD™ hard-set mounting media (Vector Laboratories) and imaged on a Nikon ECLIPSE C1™ confocal microscope with a 1.4 NA 60× oil-immersion lens, using minimum pinhole (30 μm). Images were captured using EZ-C1-3.50 imaging software.
# Chain of CRAF (P04049 whole entry): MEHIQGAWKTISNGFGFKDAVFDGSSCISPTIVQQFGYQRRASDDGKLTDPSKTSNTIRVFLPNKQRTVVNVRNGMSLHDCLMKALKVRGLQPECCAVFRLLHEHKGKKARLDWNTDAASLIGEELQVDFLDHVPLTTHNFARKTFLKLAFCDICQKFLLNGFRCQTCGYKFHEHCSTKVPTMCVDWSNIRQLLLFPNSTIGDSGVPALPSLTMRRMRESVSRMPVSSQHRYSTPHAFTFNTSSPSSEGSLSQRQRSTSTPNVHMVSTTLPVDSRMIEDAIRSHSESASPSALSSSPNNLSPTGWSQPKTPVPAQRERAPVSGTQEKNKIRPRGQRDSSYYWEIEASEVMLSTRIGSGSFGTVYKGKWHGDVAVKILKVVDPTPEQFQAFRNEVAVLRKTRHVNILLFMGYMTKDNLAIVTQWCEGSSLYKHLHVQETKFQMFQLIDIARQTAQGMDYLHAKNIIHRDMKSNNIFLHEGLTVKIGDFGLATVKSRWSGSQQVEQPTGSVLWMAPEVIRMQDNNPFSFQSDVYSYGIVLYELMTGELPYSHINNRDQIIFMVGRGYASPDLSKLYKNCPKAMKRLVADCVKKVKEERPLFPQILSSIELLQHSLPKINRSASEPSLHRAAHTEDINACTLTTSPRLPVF
smiles,measurement,setting,value
CSc1nc(N)cc(Oc2ccc(-c3nnc(Nc4cccc(C(F)(F)F)c4)[nH]3)cc2)n1 [KG5],cells at pro-metaphase in orthotopic brain tumor tissues,[1],accumulation of cells at pro-metaphase
same,G2/M arrest in cells expressing phospho-mimetic S338D CRAF,HCT-116 cells,showed resistance to KG5
same,mitotic arrest and cell death,[2],mitotic arrest at pro-metaphase followed by cell death
same,phospho-S338 CRAF,[2],inhibition of phospho-S338 CRAF
same,PAK activity,[3],does not directly inhibit PAK activity
same,CRAF localization to the mitotic spindle,CRAF,prevents CRAF recruitment to the mitotic spindle; also recorded: prevented this localization
same,prevents phospho-S338 CRAF recruitment to the mitotic spindle,CRAF,prevents phospho-S338 CRAF recruitment to the mitotic spindle
